Holding throughout (experiment): relative viability (nuclei count vs DMSO), 5 days (fraction); higher = more cells survive
Compound in assay [1]: C(C(=O)C(=O)O)Br [Bromopyruvate] + CS(=O)(=O)CCNCc1ccc(-c2ccc3ncnc(Nc4ccc(OCc5cccc(F)c5)c(Cl)c4)c3c2)o1 [Lapatinib] (partner 2 µM)
In outline:
(§1)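 Lung cancer cell lines in 1536-well plates got either a single drug or a fixed anchor-drug dose together with five library-drug doses (not always all listed) in √10 steps, by pin tool, on the day after seeding. Nuclei were counted after 5 days, and relative viability is the treated-to-vehicle ratio of nuclei counts. Values are medians of duplicate plates.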

Compound in assay [2]: CC(O)(CS(=O)(=O)c1ccc(F)cc1)C(=O)Nc1ccc(C#N)c(C(F)(F)F)c1 [Bicalutamide] + CC(=O)c1c(C)c2cnc(Nc3ccc(N4CCNCC4)cn3)nc2n(C2CCCC2)c1=O [Palbociclib] (partner 0.5 µM)
In outline: as §1

Compound in assay [3]: CC(O)(CS(=O)(=O)c1ccc(F)cc1)C(=O)Nc1ccc(C#N)c(C(F)(F)F)c1 [Bicalutamide] + CCNC(=O)c1noc(-c2cc(C(C)C)c(O)cc2O)c1-c1ccc(CN2CCOCC2)cc1 [Luminespib] (partner 0.01 µM)
The essentials: as §1

Compound in assay [4]: CC(O)(CS(=O)(=O)c1ccc(F)cc1)C(=O)Nc1ccc(C#N)c(C(F)(F)F)c1 [Bicalutamide] + N=C(N)NC(=N)NCCc1ccccc1 [Phenformin] (partner 250 µM)
The essentials: as §1

The values below come from the supplement of paper PMC10307832.

For the cell line NCI-H1395, the relative viability in assay [1] (first compound 1 µM) stood at 1.07; in assay [1] (first compound 3.162 µM), 0.928; in assay [1] (first compound 10 µM) it was 1.07; in assay [1] (first compound 31.62 µM), 0.919; in assay [1] (first compound 100 µM), 0.976; in assay [2] (first compound 0.08 µM) it was 0.645. The relative viability in assay [2] (first compound 0.253 µM) was 0.624; in assay [2] (first compound 0.8 µM), 0.639; in assay [2] (first compound 2.53 µM) it was 0.568; in assay [3] (first compound 0.08 µM), 0.726; in assay [3] (first compound 0.253 µM), 0.774; in assay [3] (first compound 0.8 µM), 0.854. The relative viability turned out to be 0.621 in assay [3] (first compound 2.53 µM); 0.467 in assay [4] (first compound 0.08 µM); 0.417 in assay [4] (first compound 0.253 µM); 0.478 in assay [4] (first compound 0.8 µM); 0.446 in assay [4] (first compound 2.53 µM).
With NCI-H358, the relative viability in assay [1] (first compound 1 µM) was 0.435; in assay [1] (first compound 3.162 µM), 0.449; in assay [1] (first compound 10 µM) it was 0.482; in assay [1] (first compound 31.62 µM), 0.483; in assay [1] (first compound 100 µM), 0.451; in assay [2] (first compound 0.08 µM), 0.147. For the same cell line, the relative viability in assay [2] (first compound 0.253 µM) is 0.141; in assay [2] (first compound 0.8 µM), 0.14; in assay [2] (first compound 2.53 µM), 0.125; in assay [3] (first compound 0.08 µM), 0.488; in assay [3] (first compound 0.253 µM), 0.295; in assay [3] (first compound 0.8 µM), 0.582. For the same cell line, the relative viability in assay [3] (first compound 2.53 µM) is 0.32; in assay [4] (first compound 0.08 µM), 0.336; in assay [4] (first compound 0.253 µM), 0.344; in assay [4] (first compound 0.8 µM), 0.401; in assay [4] (first compound 2.53 µM), 0.35.
For the cell line PC-14, the relative viability turned out to be 0.317 in assay [1] (first compound 1 µM); 0.317 in assay [1] (first compound 3.162 µM); 0.361 in assay [1] (first compound 10 µM); 0.276 in assay [1] (first compound 31.62 µM); 0.325 in assay [1] (first compound 100 µM); 0.583 in assay [2] (first compound 0.08 µM). Moreover, the relative viability was 0.466 in assay [2] (first compound 0.253 µM); 0.677 in assay [2] (first compound 0.8 µM); 0.422 in assay [2] (first compound 2.53 µM); 0.16 in assay [3] (first compound 0.08 µM); 0.148 in assay [3] (first compound 0.253 µM); 0.198 in assay [3] (first compound 0.8 µM). The relative viability was 0.137 in assay [3] (first compound 2.53 µM); 0.701 in assay [4] (first compound 0.08 µM); 0.541 in assay [4] (first compound 0.253 µM); 0.96 in assay [4] (first compound 0.8 µM); 0.527 in assay [4] (first compound 2.53 µM).
Regarding CAL-12T, the relative viability in assay [1] (first compound 1 µM) came out at 0.669; in assay [1] (first compound 3.162 µM) it was 0.698; in assay [1] (first compound 10 µM), 0.794; in assay [1] (first compound 31.62 µM), 0.748; in assay [1] (first compound 100 µM), 0.902; in assay [2] (first compound 0.08 µM) it was 0.505. In addition, the relative viability in assay [2] (first compound 0.253 µM) was determined as 0.352; in assay [2] (first compound 0.8 µM) it was 0.533; in assay [2] (first compound 2.53 µM), 0.329; in assay [3] (first compound 0.08 µM), 0.707; in assay [3] (first compound 0.253 µM) it was 0.38; in assay [3] (first compound 0.8 µM), 0.712. Moreover, the relative viability worked out at 0.454 in assay [3] (first compound 2.53 µM); 0.609 in assay [4] (first compound 0.08 µM); 0.505 in assay [4] (first compound 0.253 µM); 0.626 in assay [4] (first compound 0.8 µM); 0.493 in assay [4] (first compound 2.53 µM).
